The source of these data is patent EP2782585B1, “ANTIVIRAL FORMULATIONS” (3B Pharmaceuticals, Inc., priority 2011, dated 2013).

The subject of one series is HSV-2. As to the kind of experiment: In vitro assay for anti-HSV-2 mRNA activity (QuantiGene Plex 2.0 bDNA) in infected primary endothelial cells. In kind it is cell-based, HSV type 2. Particulars: best-fit value, primary Adult Human Dermal Microvascular Endothelial Cells, overnight incubation; for IC50: Human alphaherpesvirus 2, Endothelial cell, HSV-2 mRNA; for LogIC50 / HillSlope: variable slope fit; for LogIC50: concentrations in µM. The procedure: (§1) In vitro assays for anti-HSV-1 and anti-HSV-2 mRNA activity are described in Example 1. Confluent Vero cell monolayers were infected with HSV type 1 or HSV type 2 at a multiplicity of infection of 10 and the resultant virus was used to infect primary Adult Human Dermal Microvascular Endothelial Cells for 1 hour; the supernatant was replaced with fresh culture media and then incubated overnight in the presence of various concentrations of acyclovir, 2-deoxy-D-glucose or an equimolar combination of the two compounds. After overnight incubation, the cells were harvested, lysed, and subjected to QuantiGene Plex 2.0 assay (Panomics, Inc., Fremont, CA) for quantitative assay of HSV-1 and HSV-2 mRNA. The QuantiGene Plex 2.0 assay combines branched DNA (bDNA) signal amplification and multi-analyte profiling beads (xMAP®) technologies to enable the detection and quantitation of multiple mRNA targets simultaneously. Briefly, confluent Vero cell monolayers were infected with HSV type 1 or HSV type 2 at a multiplicity of infection of 10 and the resultant virus was used to infect primary Adult Human Dermal Microvascular Endothelial Cells for 1 hour and then the supernatant was replaced with fresh culture media and then incubated overnight in the presence of various concentrations of acyclovir, 2-deoxy-D-glucose or an equimolar combination of the two compounds. Generally, this assay is considered to be a more sensitive and specific assay (bDNA) for the final readout when compared to an ELISA. The ELISA method while easier, can lack specificity to determine the difference between HSV1 and HSV2. The bDNA assay is a hybridization-based method of target-specific RNA quantitation that amplifies signal rather than target RNA, using labeled DNA probes. The QuantiGene Plex 2.0 system utilizes fluorescent microspheres (Capture Beads) as a support to capture specific RNA molecules. The ability to quantify multiple target-specific RNA molecules in a single sample lies in the design of the Probe Sets. For each RNA molecule of interest, an oligonucleotide Probe Set containing three types of synthetic probes, Capture Extenders (CEs), Label Extenders (LEs), and Blockers (BLs) that hybridize and span contiguous sequences of the target RNA, is provided. The CEs discriminate among the different Capture Beads within the bead array while capturing, via cooperative hybridization, the target RNA. Signal amplification is mediated by DNA amplification molecules that hybridize to the tails of the LEs. Each amplification unit contains multiple hybridization sites for biotinylated Label Probes that bind Streptavidin-conjugated R-Phycoerythrin (SAPE). The resulting fluorescence signal associated with individual Capture Beads is read on a Luminex flow cytometer. Signal is reported as median fluorescence intensity (MFI) and is proportional to the number of target RNA molecules present in the sample. All compounds were run in triplicate for each concentration. Concentrations are expressed in micromolar (µM) concentrations. The IC50 (the drug concentration that reduces the number of virally infected cells by 50%) were determined by plotting the reduction in fluorescence (RLU) versus the drug concentration using Graph Pad Prism software. Specifically, the variable slope model was used to calculate the IC50s with the formula "Y=Bottom + (Top-Bottom)/(1+10^((LogIC50-X)*HillSlope))" using Graph Pad Prism software. The data is shown graphically in Figures 1 and 2. The error bars represent the standard error of the mean (SEM). Table 1. IC50 of Acyclovir and/or 2-Deoxy-D-glucose against HSV-1. […]

Another series concerns HSV-1. Nature of the series: In vitro assay for anti-HSV-1 mRNA activity (QuantiGene Plex 2.0 bDNA) in infected primary endothelial cells. As to conditions: best-fit value, primary Adult Human Dermal Microvascular Endothelial Cells, overnight incubation; for IC50: Human alphaherpesvirus 1, Endothelial cell, HSV-1 mRNA; for LogIC50 / HillSlope: variable slope fit; for LogIC50: concentrations in µM. In kind it is cell-based, HSV type 1. On the procedure: as §1

For series [1] the following is noted: local application compared with oral; cited from earlier work.

Regarding `O=CC[C@@H](O)[C@H](O)[C@H](O)CO` [2 Deoxy D glucose, 2-deoxy-D-glucose], in the series with HSV-2, the IC50 (commonly the concentration that gives 50% inhibition) turned out to be 8 µM, the LogIC50 is reported as 0.9029 and the HillSlope is listed as -3.957. In addition, in the series on HSV-1, the IC50 is 20.9 µM, the LogIC50 came to 1.32 and the HillSlope is -2.395.

On to `Nc1nc2c(ncn2COCCO)c(=O)[nH]1` [Acyclovir, 9-(2-hydroxyethoxymethyl)guanine], for which, in the series on HSV-2, the IC50 turned out to be 1.91 µM, the LogIC50 turned out to be 0.2805 and the HillSlope is -1.113. Further, in the series on HSV-1, the IC50 came out at 1.78 µM, the LogIC50 is listed as 0.2509 and the HillSlope is given as -1.108. Besides, the “drug concentration in the skin after local application versus given orally” value in series [1] is recorded as 2-3 times lower.
